Values quoted from earlier work as cited in patent US12637441B2, “Prodrugs of the tyrosine kinase inhibitor for treating cancer” (RISEN (SUZHOU) PHARMA TECH CO., LTD., priority 2019, dated 2026).

CNC(=O)c1ccccc1Sc1ccc2c(/C=C/c3ccccn3)n[nH]c2c1 [axitinib, N-methyl-2-((3-((1E)-2-(2-pyridinyl)ethenyl)-1H-indazol-6-yl)thio)benzamide]
patients in whom the most common side effects occur: more than 20%
